Residues, ends and D or L forms follow the SMILES beside them. *: point of attachment. CH2Cl = ClC*
How the values were obtained:
[1] = molecular target: T1, recombinant mouse furin (Mus musculus, UniProt P23188); experiment: Furin enzyme assay, hydrolysis of pERTKR-MCA at pH 7.0; type: biochemical
T1 construct: truncated N-terminally to the transmembrane domain at His^711 using PCR; myc (C, cleaved yes); hexa-His (C, cleaved yes); made in house; host or cells: DG44 CHO cells, conditioned medium
Description: Recombinant convertase preparation. The mouse furin clone was a kind gift from K. Nakayama (Fukuoka University School of Medicine, Fukuoka, Japan). The mouse furin cDNA was truncated N-terminally to the transmembrane domain at His^711 using PCR. This PCR product was then subcloned into pcDNA3.1 (−) myc-His (Invitrogen) at the Nhe1 and Xba1 restriction sites. Dihydrofolate-reductase-negative DG44 Chinese Hamster Ovary (CHO) cells (L. Chasin, Columbia University, New York, N.Y.) were transfected using Lipofectin (Life Technologies), and colonies were selected at 37° C. in 5% CO2 in α-MEM (lacking nucleosides) containing 10% well-dialyzed fetal bovine serum (Life Technologies). Conditioned media from colonies were screened using an enzyme assay (see below), and a high-expressing clone was selected. Overexpression of furin was achieved by increasing the methotrexate concentration from 5 nM to 50 μM in five- to ten-fold steps as described in I. Lindberg et al., Methods Neurosci., vol. 23, pp. 94-108 (1995). The amplified lines were tested for increased furin expression by enzyme assay. Once the 50 μM methotrexate level had been reached, cells were split at ratios of 1:6 twice a week. 100 mL of conditioned media (OptiMEM, Life Technologies) containing 100 μg/mL aprotinin (Miles Laboratories, Kankakee, Ill.) was collected from confluent roller bottles every 24 h. The medium was then centrifuged at low speed to remove cells, and the supernatant was stored at −80° C. until use.
Purification of furin: Conditioned medium was thawed, pooled, and diluted 1:3.5 with buffer A (20 mM HEPES, 0.1% Brij 35, 5 mM CaCl2, pH 7.4), and pumped at 40 mL/min through a Sartorius D100 anion exchange membrane. The membrane was washed with 40 mL of buffer A, followed by 40 mL of buffer A containing 50 mM NaCl, and finally by 40 mL of buffer A containing 200 mM NaCl. The fraction eluting with 200 mM NaCl was diluted 1:4 with buffer A and applied to a 1 mL Pharmacia Mono Q HR5/5 anion exchange column at a flow rate of 1 mL/min. Following a 10 mL wash with buffer A, furin was eluted by a linear increase of 0 to 500 mM NaCl in buffer A over 30 mL; and 2 mL fractions were collected. Fractions containing peak activity were pooled, and 200 μL aliquots were subjected to gel permeation chromatography using a Pharmacia Superose 12 column at a flow rate of 0.5 mL/min of buffer A containing 200 mM NaCl. Fractions were assayed for activity as described below; protein content was determined using the Bradford method. All purification steps were performed at 4° C.
(§1) Enzyme Assays and Hexapeptide Library Screening. Enzyme assays for PC1 and PC2 were performed at pH 5.0 using pERTKR-MCA (Peptides International Inc., Louisville, Ky.) as described in E. Apletalina et al., J. Biol. Chem., vol. 273, pp. 26589-26595 (1998). The assay for furin was performed using the same substrate at pH 7.0 in 100 mM HEPES, 5 mM CaCl2, 0.1% Brij 35. All assays were performed at 37° C. in a 96 well fluorometer (Labsystems) at an excitation wavelength of 380 nm with emission monitored at a wavelength of 460 nm. The total volume was 50 μL. Unless otherwise stated, the final substrate concentration for all assays was 200 μM. When used in a particular experiment, the inhibitory peptides were pre-incubated with enzyme for 30 min at room temperature prior to addition of substrate. All assays were performed in duplicate or triplicate.

[2] = molecular target: T2, PC1 (Homo sapiens, UniProt P29120); conditions: literature; cited from earlier work
T2 sequence (P29120 111-753): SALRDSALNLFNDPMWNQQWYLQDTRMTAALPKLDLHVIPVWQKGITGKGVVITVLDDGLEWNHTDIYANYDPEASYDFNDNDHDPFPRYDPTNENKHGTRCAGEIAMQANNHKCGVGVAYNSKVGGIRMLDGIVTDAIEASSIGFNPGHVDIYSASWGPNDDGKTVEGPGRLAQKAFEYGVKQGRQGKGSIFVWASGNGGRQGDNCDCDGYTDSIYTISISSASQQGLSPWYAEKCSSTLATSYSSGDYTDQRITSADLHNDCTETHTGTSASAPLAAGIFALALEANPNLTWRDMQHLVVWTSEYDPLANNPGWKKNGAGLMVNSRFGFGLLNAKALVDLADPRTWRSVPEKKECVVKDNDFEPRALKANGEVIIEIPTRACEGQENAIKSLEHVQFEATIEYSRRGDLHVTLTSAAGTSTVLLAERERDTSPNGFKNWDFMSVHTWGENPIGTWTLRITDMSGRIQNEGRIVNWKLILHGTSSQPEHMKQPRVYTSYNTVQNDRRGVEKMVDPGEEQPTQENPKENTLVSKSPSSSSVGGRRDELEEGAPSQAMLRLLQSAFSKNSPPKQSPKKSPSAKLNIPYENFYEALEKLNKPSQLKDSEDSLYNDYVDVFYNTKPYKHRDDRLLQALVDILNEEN

[3] = molecular target: T3, PC2 (Mus musculus, UniProt P21661); experiment: PC2 enzyme assay, hydrolysis of pERTKR-MCA at pH 5.0; type: biochemical; parameters: made in house
T3 sequence (P21661 109-637): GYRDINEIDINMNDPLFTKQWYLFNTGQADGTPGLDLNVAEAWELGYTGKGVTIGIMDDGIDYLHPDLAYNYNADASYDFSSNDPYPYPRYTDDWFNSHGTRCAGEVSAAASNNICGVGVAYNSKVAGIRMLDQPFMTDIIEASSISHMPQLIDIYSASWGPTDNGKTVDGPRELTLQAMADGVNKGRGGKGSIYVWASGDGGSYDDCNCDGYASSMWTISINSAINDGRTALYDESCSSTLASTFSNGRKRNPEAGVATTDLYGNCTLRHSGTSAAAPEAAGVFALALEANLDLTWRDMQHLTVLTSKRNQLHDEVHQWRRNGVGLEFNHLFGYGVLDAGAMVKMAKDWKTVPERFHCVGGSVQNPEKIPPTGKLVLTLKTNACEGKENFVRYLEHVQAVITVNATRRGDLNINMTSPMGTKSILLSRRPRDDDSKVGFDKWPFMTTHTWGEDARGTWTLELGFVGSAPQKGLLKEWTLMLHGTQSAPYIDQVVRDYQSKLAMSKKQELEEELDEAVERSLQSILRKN
Protocol: (§2) The proprotein convertases PC1 and PC2 were prepared by ion exchange chromatography as described in G. Frenette et al., Biochim. Biophys. Acta., vol. 1334, pp. 109-115 (1997).
as §1

[4] = molecular target: T4, PACE4 (Rattus norvegicus, UniProt Q63415); experiment: PACE4 enzyme assay, hydrolysis of pERTKR-MCA; type: biochemical
T4 construct: made in house; host or cells: stably transfected hEK-293 cells (gift of R. E. Mains), conditioned medium
T4 sequence (Q63415 133-937): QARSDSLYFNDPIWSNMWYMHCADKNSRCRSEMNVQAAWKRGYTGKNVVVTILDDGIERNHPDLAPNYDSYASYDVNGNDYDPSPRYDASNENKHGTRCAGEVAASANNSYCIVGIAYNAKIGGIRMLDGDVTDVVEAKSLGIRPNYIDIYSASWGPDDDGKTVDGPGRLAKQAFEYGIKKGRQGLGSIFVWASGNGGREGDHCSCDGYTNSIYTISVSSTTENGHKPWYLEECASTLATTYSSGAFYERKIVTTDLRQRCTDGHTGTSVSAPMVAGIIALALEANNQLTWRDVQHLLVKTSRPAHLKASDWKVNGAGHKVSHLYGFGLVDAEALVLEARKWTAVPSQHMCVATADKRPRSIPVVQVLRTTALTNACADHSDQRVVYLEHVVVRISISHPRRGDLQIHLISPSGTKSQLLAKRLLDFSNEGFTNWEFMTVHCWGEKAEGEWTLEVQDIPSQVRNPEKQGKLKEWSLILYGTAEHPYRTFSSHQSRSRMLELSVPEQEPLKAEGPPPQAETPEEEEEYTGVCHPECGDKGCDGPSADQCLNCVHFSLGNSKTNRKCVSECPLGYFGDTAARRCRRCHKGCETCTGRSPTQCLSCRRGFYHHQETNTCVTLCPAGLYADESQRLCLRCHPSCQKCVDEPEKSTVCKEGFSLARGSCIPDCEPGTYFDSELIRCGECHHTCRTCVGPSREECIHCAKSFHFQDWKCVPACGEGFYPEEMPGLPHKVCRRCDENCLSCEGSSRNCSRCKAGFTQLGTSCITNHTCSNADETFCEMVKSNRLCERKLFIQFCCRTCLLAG
Protocol: The proprotein convertase PACE4 was partially purified from an overnight-conditioned medium of stably transfected hEK-293 human embryonic kidney cells (a generous gift of R. E. Mains, Johns Hopkins University School of Medicine, Baltimore, Md.). Briefly, 100 mL of conditioned medium (OptiMEM containing 100 μg/mL aprotinin) was loaded onto an Econo-Pac Q (Bio-Rad) column at 4 mL/min, washed with 10 mL of buffer A, and then eluted with a linear gradient of buffer A containing 500 mM NaCl over 50 mL. The active fractions were then diluted 1:4 with buffer A prior to loading onto a Mono Q column (Pharmacia) at 1 mL/min. The PACE4 was eluted with a linear gradient of buffer A containing 500 mM NaCl over 10 mL. The resulting active fractions were then pooled and stored at −80° C. until use.
as §1

[5] = molecular target: T5, PC1 (Mus musculus, UniProt P63239); experiment: biochemical; type: biochemical
T5 construct: made in house
T5 sequence (P63239 111-753): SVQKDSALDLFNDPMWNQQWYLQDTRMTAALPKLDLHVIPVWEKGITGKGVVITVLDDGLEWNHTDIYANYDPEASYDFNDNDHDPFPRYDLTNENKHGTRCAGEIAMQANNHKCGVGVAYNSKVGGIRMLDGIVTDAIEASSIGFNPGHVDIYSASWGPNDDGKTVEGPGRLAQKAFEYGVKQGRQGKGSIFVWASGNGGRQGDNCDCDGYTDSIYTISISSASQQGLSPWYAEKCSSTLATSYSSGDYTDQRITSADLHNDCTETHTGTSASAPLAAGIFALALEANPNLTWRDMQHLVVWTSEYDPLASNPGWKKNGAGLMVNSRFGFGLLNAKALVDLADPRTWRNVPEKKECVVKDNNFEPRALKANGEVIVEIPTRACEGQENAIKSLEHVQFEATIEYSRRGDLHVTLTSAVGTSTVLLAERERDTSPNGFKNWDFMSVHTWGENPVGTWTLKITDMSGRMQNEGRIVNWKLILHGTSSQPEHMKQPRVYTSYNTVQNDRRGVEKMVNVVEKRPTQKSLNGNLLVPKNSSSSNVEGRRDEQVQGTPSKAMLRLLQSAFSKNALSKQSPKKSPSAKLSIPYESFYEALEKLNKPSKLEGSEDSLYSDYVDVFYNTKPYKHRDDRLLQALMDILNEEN
Protocol: as §2, §1

[6] = molecular target: furin (Homo sapiens, UniProt P09958); conditions: literature, cited from earlier work
Chain of furin (P09958 108-794): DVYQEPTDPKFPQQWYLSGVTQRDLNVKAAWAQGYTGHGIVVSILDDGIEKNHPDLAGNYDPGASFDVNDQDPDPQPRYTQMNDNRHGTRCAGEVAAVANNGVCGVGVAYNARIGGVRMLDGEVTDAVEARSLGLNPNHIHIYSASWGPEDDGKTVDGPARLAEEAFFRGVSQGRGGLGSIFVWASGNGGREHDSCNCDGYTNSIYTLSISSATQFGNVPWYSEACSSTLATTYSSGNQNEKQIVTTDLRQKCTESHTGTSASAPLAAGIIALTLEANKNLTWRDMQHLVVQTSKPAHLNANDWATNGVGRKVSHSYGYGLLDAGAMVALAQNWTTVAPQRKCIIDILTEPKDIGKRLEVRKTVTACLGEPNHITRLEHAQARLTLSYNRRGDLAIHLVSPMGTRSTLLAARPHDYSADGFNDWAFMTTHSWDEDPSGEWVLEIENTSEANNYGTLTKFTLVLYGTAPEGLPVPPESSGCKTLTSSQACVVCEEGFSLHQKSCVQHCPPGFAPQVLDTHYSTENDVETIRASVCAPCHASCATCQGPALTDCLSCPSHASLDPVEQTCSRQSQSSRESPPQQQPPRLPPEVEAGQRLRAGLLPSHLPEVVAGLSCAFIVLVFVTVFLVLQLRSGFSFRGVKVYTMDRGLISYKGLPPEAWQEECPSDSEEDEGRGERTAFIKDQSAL

T1 sequence (P23188 108-714 limits assumed): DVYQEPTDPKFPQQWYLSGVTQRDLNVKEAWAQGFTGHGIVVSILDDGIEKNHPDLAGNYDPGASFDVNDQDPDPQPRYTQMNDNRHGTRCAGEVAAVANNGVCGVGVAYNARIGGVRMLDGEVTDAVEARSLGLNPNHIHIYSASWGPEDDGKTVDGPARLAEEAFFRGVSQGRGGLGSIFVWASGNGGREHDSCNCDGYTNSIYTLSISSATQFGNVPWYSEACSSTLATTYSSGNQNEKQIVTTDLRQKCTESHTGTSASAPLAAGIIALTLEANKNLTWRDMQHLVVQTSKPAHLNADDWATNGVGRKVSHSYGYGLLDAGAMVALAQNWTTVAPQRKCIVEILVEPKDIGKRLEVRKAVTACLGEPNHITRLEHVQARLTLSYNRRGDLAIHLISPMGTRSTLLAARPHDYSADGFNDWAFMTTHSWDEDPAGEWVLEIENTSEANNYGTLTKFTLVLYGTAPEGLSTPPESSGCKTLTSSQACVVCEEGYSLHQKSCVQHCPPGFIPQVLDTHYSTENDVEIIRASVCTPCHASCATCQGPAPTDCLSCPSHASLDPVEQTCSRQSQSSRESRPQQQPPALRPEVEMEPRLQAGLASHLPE

In the case of `CC(=O)N[C@@H](CC(C)C)C(=O)N[C@@H](CC(C)C)C(=O)N[C@@H](CCCNC(=N)N)C(=O)N[C@H](C(=O)N[C@@H](CCCCN)C(=O)N[C@@H](CCCNC(=N)N)C(N)=O)C(C)C` [Ac-LLRVKR-NH2], the Ki [1] is listed as 3400 ± 100 nM, the “Ki / inhibition of PC1, in words” value [2] is listed as “nanomolar inhibitor” and the Ki [3] is listed as 1000 ± 80 nM.
With `N=C(N)NCCC[C@H](NC(=O)[C@H](CCCNC(=N)N)NC(=O)[C@H](CCCNC(=N)N)NC(=O)[C@@H](N)CCCNC(=N)N)C(=O)O` [Tetra-L-arginine] (H-RRRR-OH) the Ki [4] was greater than 200000 nM, the “inhibition of PACE4” value ([4]; mM concentrations) was “not found to inhibit even at mM concentrations” and the Ki [5] was greater than 200000 nM. For the same compound, the “inhibition of PC1” value ([5]; μM concentrations) was “not inhibited”.
In the case of “Ac-YEKERSKR-CH2Cl (SMILES CC(=O)N[C@@H](Cc1ccc(O)cc1)C(=O)N[C@@H](CCC(=O)O)C(=O)N[C@@H](CCCCN)C(=O)N[C@@H](CCC(=O)O)C(=O)N[C@@H](CCCNC(=N)N)C(=O)N[C@@H](CO)C(=O)N[C@@H](CCCCN)C(=O)N[C@@H](CCCNC(=N)N)C(=O)CCl) [reference compound]”, the “Ki against furin, in words” value [6] is listed as “low nM” and the “Ki / inhibition of PC1, in words” value [2] is listed as “low nM”.
Work on H-RRRRR-OH [Penta-L-arginine] yielded a Ki [4] of 980 ± 120 nM and a Ki [5] of 14000 ± 6100 nM.
For decanoyl-RVKR-CH2-AVG-NH2, the Ki ([6]; read-out: Ki against furin) is listed as 3.4 nM.
For “α1-PDX: α1-antitrypsin variant with reactive site loop bioengineered to contain a minimal furin consensus sequence [reference compound]”, the inhibition of furin ([1]; nanomolar α1-PDX concentrations, validation of enzyme preparation) is listed as “strongly inhibited” and the inhibition of furin [6] is listed as “sub-nanomolar range”.
